Reference: article PMC11207571, “Applicability of MDR1 Overexpressing Abcb1KO-MDCKII Cell Lines for Investigating In Vitro Species Differences and Brain Penetration Prediction” (Pharmaceutics, 2024)

Tests used:
hMDR1 and hBCRP = assay: Brain permeability classification from total ER of hMDR1 and hBCRP against in vivo rodent Kp,uu,brain
Description: MDR1 and/or BCRP substrate properties were investigated by binary classification analysis on CNS+ and CNS− compounds. […] True negative (TN), where there was no efflux and the CNS+ compound crossed the BBB. […] The sensitivity and specificity of the estimation of brain penetration along with MDR1 and BCRP activity were calculated from predictive performance metrics.
First, NET ER was calculated and used for human predictions, (2) NET ER=ER(−inh)[…]ER(+inh) where ER(−inh) is ER in the absence of inhibitor, and ER(+inh) is ER in the presence of inhibitor, for hMDR1 (ERMDR1) or hBCRP (ERBCRP).
To identify the correlation between the in vivo rodent Kp,uu,brain and ERs, 58 compounds with known Kp,uu,brain were selected. An ER of 2 was used as a cut-off to classify MDR1 substrates and a Kp,uu,brain of 0.3 was used as a threshold for CNS penetrant compounds. The resulting graphs are thus divided into four quadrants. Brain penetration (Kp,uu,brain) was used as the logical value true condition, with compounds having Kp,uu,brain ≤ 0.3 considered positive. Q2 and Q3 comprise molecules with impaired brain penetration. […] Molecules in Q4 (true negatives, TN) can freely access the brain (Figure 2). Predictive performance metrics were calculated to show the efficacy of the established cell lines in BBB permeability classification (Table 1). Sensitivity refers to the ability of the model to correctly classify CNS-restricted molecules based on MDR1 substrate nature.
Subsequently, for a more reliable prediction of brain penetration, data generated in the hBCRP cell line were included in the analysis. hBCRP assay conditions and evaluations were identical to that of MDR1 cell lines, which allowed proper comparisons (Figure 2E,F). Total ER was calculated by combining ERs determined in BCRP and hMDR1 cell lines based on Equation (3), with an ER cut-off of 3. […] Eventually, total ERs were also assessed with the Relative Expression Factor (REF) (Equation (4); Figure 2E,F). REF is an in vitro and in vivo correlation scaler, calculated from transporter protein abundances in brain microvessels versus overexpressing cell lines.

human MDR1 [1] = molecular target: T1, human MDR1 (Homo sapiens, UniProt P08183); assay: Bidirectional transport assay, efflux ratio in Abcb1KO-MDCKII hMDR1 cells; conditions: for efflux ratio at 120 min, 1 µM: human, MDCK-MDR1, pH 7.4; for CNS penetration classification based on hMDR1 ER alone: ER cut-off 2, in vivo rodent Kp,uu,brain cut-off 0.3
T1 sequence (P08183 whole entry): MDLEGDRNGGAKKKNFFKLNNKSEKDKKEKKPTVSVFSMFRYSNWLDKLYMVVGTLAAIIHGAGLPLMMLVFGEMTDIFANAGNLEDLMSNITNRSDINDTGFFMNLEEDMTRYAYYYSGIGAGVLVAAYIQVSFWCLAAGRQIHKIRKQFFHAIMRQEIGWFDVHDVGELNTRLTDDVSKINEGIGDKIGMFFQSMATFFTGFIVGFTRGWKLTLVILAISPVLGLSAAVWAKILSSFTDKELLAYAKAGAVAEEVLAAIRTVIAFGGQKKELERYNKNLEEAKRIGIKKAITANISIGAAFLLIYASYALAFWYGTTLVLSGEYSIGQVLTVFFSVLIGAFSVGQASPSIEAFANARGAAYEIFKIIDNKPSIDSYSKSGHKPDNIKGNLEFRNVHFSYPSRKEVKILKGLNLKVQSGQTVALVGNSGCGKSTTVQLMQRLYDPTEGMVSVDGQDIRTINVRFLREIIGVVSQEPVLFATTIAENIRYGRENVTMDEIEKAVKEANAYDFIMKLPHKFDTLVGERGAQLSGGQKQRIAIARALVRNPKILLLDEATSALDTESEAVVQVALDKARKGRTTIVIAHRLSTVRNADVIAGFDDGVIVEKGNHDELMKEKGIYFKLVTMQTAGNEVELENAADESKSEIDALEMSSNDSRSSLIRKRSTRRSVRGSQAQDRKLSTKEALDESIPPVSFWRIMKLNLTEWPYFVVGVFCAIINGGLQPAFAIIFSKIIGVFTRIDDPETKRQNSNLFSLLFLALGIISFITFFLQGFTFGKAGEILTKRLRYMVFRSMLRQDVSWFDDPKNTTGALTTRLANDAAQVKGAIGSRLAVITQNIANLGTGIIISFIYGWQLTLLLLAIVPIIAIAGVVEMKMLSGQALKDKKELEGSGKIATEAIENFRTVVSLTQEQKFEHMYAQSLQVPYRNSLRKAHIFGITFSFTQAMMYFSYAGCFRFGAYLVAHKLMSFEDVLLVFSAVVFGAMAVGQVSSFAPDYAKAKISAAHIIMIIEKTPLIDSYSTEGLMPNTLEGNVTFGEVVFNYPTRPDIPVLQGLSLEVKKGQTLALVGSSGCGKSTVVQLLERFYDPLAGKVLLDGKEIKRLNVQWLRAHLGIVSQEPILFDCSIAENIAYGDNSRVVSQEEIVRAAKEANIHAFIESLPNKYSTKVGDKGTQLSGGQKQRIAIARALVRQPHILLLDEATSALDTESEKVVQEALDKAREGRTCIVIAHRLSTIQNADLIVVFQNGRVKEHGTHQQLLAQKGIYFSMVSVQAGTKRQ
Summary of the method: (§1)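 Analyte levels in transport samples were measured by HPLC-MS/MS with SRM detection, using 0.1% formic acid in water and in acetonitrile as eluents. Samples were pooled, three to four analytes per pool.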

human BCRP = molecular target: T2, human BCRP (Homo sapiens, UniProt Q9UNQ0); assay: Bidirectional transport assay, efflux ratio in MDCKII-BCRP cells; conditions: for efflux ratio at 120 min, 1 µM: human, pH 7.4
T2 sequence (Q9UNQ0 1-655): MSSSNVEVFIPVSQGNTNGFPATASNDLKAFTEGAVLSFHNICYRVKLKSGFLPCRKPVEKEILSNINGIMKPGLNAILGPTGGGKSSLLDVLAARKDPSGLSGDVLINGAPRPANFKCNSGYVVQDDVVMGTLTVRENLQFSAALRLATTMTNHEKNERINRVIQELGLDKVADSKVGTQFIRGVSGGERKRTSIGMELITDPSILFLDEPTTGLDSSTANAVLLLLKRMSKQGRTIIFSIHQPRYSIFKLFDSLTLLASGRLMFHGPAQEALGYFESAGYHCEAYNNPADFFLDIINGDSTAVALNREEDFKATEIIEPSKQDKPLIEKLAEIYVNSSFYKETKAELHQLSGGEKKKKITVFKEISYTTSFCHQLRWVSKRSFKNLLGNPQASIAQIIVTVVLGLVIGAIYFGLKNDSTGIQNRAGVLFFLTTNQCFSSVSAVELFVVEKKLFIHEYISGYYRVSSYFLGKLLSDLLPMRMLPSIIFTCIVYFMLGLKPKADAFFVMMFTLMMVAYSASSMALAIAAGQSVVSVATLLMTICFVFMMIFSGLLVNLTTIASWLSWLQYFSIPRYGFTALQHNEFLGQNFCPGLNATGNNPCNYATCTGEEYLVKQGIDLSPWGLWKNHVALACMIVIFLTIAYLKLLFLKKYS
Summary of the method: as §1

cynomolgus monkey Mdr1 [2] = molecular target: T3, cynomolgus monkey Mdr1 (Macaca fascicularis, UniProt Q8HZQ6); assay: Bidirectional transport assay, efflux ratio in Abcb1KO-MDCKII cyMDR1 cells; conditions: for efflux ratio at 120 min, 1 µM: cynomolgus monkey, pH 7.4
T3 sequence (Q8HZQ6 1-1283): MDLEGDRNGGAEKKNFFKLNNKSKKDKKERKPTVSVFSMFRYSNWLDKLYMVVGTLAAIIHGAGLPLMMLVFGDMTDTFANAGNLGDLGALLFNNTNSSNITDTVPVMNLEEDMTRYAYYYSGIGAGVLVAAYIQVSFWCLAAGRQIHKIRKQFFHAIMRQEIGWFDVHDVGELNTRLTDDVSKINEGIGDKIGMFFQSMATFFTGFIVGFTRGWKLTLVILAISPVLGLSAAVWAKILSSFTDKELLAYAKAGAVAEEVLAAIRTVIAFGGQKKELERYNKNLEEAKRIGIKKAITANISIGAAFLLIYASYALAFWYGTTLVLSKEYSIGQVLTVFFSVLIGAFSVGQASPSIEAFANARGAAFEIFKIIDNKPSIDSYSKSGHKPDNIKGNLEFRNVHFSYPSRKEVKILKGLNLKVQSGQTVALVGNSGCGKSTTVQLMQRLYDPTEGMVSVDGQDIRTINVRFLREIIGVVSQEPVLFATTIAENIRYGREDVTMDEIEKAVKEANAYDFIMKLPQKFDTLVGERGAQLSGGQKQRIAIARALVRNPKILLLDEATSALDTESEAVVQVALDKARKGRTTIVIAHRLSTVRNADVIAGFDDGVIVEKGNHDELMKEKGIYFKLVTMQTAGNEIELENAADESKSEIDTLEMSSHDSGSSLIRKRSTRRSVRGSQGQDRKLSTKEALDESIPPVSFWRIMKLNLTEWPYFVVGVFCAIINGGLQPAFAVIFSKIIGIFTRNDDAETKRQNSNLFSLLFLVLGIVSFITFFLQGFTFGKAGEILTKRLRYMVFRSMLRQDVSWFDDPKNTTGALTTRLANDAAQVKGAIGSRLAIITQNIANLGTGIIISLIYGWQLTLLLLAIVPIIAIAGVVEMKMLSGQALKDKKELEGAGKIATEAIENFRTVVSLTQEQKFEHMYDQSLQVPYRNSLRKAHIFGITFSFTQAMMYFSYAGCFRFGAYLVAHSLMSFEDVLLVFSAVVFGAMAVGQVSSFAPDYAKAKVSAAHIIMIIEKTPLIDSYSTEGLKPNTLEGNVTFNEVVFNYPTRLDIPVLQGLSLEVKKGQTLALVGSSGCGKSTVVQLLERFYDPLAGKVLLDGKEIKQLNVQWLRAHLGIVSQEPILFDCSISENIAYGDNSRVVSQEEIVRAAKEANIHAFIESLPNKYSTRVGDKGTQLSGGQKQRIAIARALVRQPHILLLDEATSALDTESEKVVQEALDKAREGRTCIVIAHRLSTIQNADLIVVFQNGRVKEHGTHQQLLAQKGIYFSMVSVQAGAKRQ
Summary of the method: as §1

rat Mdr1a [3] = molecular target: T4, rat Mdr1a (Rattus norvegicus, UniProt Q6PSM0); assay: Bidirectional transport assay, efflux ratio in Abcb1KO-MDCKII rMDR1 cells; conditions: for efflux ratio at 120 min, 1 µM: rat, pH 7.4
T4 sequence (Q6PSM0 1-1272): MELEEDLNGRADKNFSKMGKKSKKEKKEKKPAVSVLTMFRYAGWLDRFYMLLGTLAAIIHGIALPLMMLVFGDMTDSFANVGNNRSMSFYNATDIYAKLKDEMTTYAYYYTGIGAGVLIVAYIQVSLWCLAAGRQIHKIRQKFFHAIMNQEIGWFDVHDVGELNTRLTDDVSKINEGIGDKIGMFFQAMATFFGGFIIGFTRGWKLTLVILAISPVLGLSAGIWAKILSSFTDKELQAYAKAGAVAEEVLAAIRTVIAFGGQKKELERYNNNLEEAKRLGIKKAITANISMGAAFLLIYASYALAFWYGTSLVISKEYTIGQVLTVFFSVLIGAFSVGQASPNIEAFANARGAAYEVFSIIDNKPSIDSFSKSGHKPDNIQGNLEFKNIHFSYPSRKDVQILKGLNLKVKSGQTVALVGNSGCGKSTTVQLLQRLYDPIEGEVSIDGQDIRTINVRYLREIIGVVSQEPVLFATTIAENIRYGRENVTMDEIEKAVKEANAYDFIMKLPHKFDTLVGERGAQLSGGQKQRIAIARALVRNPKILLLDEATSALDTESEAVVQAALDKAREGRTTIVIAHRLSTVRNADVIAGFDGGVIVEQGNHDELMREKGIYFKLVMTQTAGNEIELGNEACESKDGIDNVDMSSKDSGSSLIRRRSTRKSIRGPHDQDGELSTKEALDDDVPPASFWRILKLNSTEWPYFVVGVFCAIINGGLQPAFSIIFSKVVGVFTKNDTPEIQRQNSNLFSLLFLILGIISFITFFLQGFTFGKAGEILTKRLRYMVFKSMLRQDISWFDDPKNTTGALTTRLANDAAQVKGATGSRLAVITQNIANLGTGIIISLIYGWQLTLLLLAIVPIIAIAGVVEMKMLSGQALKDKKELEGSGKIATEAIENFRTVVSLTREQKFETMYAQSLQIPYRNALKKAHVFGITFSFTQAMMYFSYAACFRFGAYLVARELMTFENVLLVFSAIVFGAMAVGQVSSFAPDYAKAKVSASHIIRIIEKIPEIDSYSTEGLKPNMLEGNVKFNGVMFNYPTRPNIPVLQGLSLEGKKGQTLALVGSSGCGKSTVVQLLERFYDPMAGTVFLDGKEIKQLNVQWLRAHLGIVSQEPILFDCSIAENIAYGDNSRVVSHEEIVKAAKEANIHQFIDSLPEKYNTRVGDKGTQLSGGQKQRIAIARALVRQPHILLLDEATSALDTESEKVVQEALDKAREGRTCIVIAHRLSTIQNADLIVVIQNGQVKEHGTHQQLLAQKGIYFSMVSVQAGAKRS
Summary of the method: as §1

mouse Mdr1a [4] = molecular target: T5, mouse Mdr1a (Mus musculus, UniProt P21447); assay: Bidirectional transport assay, efflux ratio in Abcb1KO-MDCKII mMDR1 cells; conditions: for efflux ratio at 120 min, 1 µM: mouse, pH 7.4
T5 sequence (P21447 whole entry): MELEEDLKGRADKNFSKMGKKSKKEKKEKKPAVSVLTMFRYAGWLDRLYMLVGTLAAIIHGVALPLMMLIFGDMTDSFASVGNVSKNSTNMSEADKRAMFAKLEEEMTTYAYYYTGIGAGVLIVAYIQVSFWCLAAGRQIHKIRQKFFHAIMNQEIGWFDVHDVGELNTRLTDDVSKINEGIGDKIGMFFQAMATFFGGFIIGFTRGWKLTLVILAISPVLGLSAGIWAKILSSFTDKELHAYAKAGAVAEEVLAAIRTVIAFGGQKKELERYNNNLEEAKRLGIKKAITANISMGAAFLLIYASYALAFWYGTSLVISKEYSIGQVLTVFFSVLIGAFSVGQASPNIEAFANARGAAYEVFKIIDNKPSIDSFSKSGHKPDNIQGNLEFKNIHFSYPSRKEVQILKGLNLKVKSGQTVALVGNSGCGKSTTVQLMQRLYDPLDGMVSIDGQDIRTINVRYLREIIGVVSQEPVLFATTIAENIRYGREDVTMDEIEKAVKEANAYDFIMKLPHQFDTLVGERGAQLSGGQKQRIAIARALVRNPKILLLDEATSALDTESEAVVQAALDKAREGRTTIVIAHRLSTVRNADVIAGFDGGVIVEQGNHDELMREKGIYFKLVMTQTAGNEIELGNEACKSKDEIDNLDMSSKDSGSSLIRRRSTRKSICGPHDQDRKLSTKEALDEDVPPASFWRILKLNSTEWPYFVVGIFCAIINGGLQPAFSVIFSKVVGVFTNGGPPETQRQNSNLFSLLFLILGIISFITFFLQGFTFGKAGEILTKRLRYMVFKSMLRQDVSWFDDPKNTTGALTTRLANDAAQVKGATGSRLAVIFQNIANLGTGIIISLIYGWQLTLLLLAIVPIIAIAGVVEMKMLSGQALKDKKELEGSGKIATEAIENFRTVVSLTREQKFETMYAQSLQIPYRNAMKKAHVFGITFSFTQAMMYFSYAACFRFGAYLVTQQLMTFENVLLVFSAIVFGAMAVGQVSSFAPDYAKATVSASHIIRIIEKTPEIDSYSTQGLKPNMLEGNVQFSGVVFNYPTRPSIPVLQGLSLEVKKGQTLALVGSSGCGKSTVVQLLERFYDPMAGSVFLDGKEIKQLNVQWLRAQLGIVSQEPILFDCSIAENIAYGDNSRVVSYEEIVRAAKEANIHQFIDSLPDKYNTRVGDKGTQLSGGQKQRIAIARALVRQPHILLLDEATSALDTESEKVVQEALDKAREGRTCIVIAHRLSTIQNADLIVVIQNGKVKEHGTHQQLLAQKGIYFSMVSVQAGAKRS
Summary of the method: as §1

[5] = Bidirectional transport assay, efflux ratio in Abcb1KO-MDCKII-Mock control cells; conditions: dog, MDCK, pH 7.4
Description: (§2) Eluent A consisted of 0.1% formic acid in water, eluent B consisted of 0.1% formic acid in acetonitrile. Then, 10 µL samples were injected into the HPLC-MS/MS system. Mass spectrometric detection was performed in SRM mode, and ion transitions for each analyte were optimized during method development. Samples were analyzed in pools, with each pool containing three to four analytes.

cynomolgus monkey Mdr1 [6] = molecular target: T3, cynomolgus monkey Mdr1; assay: cell-based
rat Mdr1a [7] = molecular target: T4, rat Mdr1a; assay: Inhibition of 3H-digoxin or 3H-quinidine bidirectional transport in rMDR1 cells; assay type: cell-based; set-up: rat Mdr1a (NM_133401.1); expressed in transfected cells; host or cells: Abcb1KO-MDCKII (canine kidney, endogenous Abcb1 knocked out), transduced, single-cell clone; conditions: IC50 from ER
mouse Mdr1a [8] = molecular target: T5, mouse Mdr1a; assay: Inhibition of 3H-digoxin or 3H-quinidine bidirectional transport in mMDR1 cells; assay type: cell-based; set-up: mouse Mdr1a (NM_011076.3); expressed in transfected cells; host or cells: Abcb1KO-MDCKII (canine kidney, endogenous Abcb1 knocked out), transduced, single-cell clone; conditions: IC50 from ER
cynomolgus monkey Mdr1 [9] = molecular target: T3, cynomolgus monkey Mdr1; assay: Inhibition of 3H-digoxin or 3H-quinidine bidirectional transport in cyMDR1 cells; conditions: Inhibition of quinidine transport IC50±SD, cyMDR1, probe 3H-quinidine 0.1 µM, 60 min; IC50 from ER
human MDR1 [10] = molecular target: T1, human MDR1; assay: Inhibition of 3H-digoxin or 3H-quinidine bidirectional transport in hMDR1 cells; conditions: IC50 from ER
[11] = test system: Abcb1KO-MDCKII-Mock cells; assay: Bidirectional transport assay, efflux ratio in Abcb1KO-MDCKII-Mock control cells; conditions: 1 µM, 120 min; mean ± SD
Description: as §2

[12] = total ER cut-off 3, in vivo rodent Kp,uu,brain cut-off 0.3

SMILES	CNS penetration classification based on total ER (hMDR1 + hBCRP) (hMDR1 and hBCRP; [12])	efflux ratio at 120 min, 1 µM (human MDR1 [1])	efflux ratio at 120 min, 1 µM (human BCRP)	efflux ratio at 120 min, 1 µM (cynomolgus monkey Mdr1 [2])	efflux ratio at 120 min, 1 µM (rat Mdr1a [3])	efflux ratio at 120 min, 1 µM (mouse Mdr1a [4])	efflux ratio at 120 min, 1 µM [5]	other results
CNS(=O)(=O)Cc1ccc2[nH]cc(CCN(C)C)c2c1 [Sumatriptan]	false negatives	1.88 ± 0.12	1.74 ± 0.24	1.53 ± 0.1	2.02 ± 0.12	1.76 ± 0.08	0.93 ± 0.04	–
OC[C@@H](O)[C@@H](O)[C@H](O)[C@H](O)CO [Mannitol]	false negatives	0.87 ± 0.14	0.73 ± 0.2	0.76 ± 0.1	0.89 ± 0.12	1.04 ± 0.16	0.96 ± 0.12	–
COc1cc(Cc2cnc(N)nc2N)cc(OC)c1OC [Trimethoprim]	false positives	7.29 ± 0.69	3.08 ± 0.17	1.65 ± 0.1	13.2 ± 0.68	9.04 ± 0.49	0.84 ± 0.06	–
Cc1ccc(-c2ncc(Cl)cc2-c2ccc(S(C)(=O)=O)cc2)cn1 [Etoricoxib]	false positives	1.97 ± 0.21	2.35 ± 0.25	1.24 ± 0.21	2.01 ± 0.21	1.72 ± 0.23	0.9 ± 0.09	IC50 (cynomolgus monkey Mdr1 [6]): 15.5 ± 11.7 µM; IC50 (rat Mdr1a [7]; Inhibition of digoxin transport IC50±SD, rMDR1, probe 3H-digoxin 1 µM, 120 min): 54.6 ± 3.16 µM; IC50 (rat Mdr1a [7]; Inhibition of quinidine transport IC50±SD, rMDR1, probe 3H-quinidine 1 µM, 30 min): 18.8 ± 1.22 µM; IC50 (mouse Mdr1a [8]; Inhibition of digoxin transport IC50±SD, mMDR1, probe 3H-digoxin 1 µM, 120 min): 57.8 ± 29.8 µM; IC50 (mouse Mdr1a [8]; Inhibition of quinidine transport IC50±SD, mMDR1, probe 3H-quinidine 1 µM, 60 min): 22.2 ± 5.43 µM; IC50 (cynomolgus monkey Mdr1 [9]): 25.9 ± 10.5 µM; IC50 (human MDR1 [10]; Inhibition of digoxin transport IC50±SD, hMDR1, probe 3H-digoxin 1 µM, 120 min): > 100 µM; IC50 (human MDR1 [10]; Inhibition of quinidine transport IC50±SD, hMDR1, probe 3H-quinidine 1 µM, 60 min): > 100 µM
CC(=O)CC(c1ccccc1)c1c(O)c2ccccc2oc1=O (stereo not shown) [Warfarin]	–	0.56 ± 0.02	4.03 ± 0.29	0.58 ± 0.05	0.6 ± 0.01	0.58 ± 0.02	0.54 ± 0.02	CNS penetration classification based on total ER (hMDR1 + hBCRP) (hMDR1 and hBCRP; not told): false positives
COc1ccc2c(c1)c(CC(=O)O)c(C)n2C(=O)c1ccc(Cl)cc1 [Indomethacin]	true positives	0.42 ± 0.05	10.2 ± 0.71	0.4 ± 0.03	0.4 ± 0.01	0.39 ± 0.02	0.37 ± 0.07	CNS penetration classification based on hMDR1 ER alone (human MDR1 [1]): false negatives
Cc1nccn1CC1CCc2c(c3ccccc3n2C)C1=O (stereo not shown) [Ondansetron]	false positives	5.24 ± 0.68	4.28 ± 0.71	3.77 ± 0.64	7.62 ± 0.39	5.33 ± 0.54	0.7 ± 0.02	–
CN(C)CCC=C1c2ccccc2CCc2ccccc21 [Amitriptylline]	–	–	–	–	–	–	–	Efflux Ratio in Abcb1KO-MDCKII hMDR1 (human MDR1 [1]; 1 µM, 120 min, mean ± SD): 1.1 ± 0.11; ER in MDCKII BCRP (human BCRP; 1 µM, 120 min, mean ± SD): 0.8 ± 0.07; Efflux Ratio in Abcb1KO-MDCKII cyMDR1 (cynomolgus monkey Mdr1 [2]; 1 µM, 120 min, mean ± SD): 0.67 ± 0.08; Efflux Ratio in Abcb1KO-MDCKII rMDR1 (rat Mdr1a [3]; 1 µM, 120 min, mean ± SD): 0.94 ± 0.14; Efflux Ratio in Abcb1KO-MDCKII mMDR1 (mouse Mdr1a [4]; 1 µM, 120 min, mean ± SD): 0.96 ± 0.12; Efflux Ratio in Abcb1KO-MDCKII Mock [11]: 1.05 ± 0.08
CCN(CC)C(=O)/C(C#N)=C/c1cc(O)c(O)c([N+](=O)[O-])c1 [Entacapone]	true positives	0.28 ± 0.02	49.4 ± 3.92	0.46 ± 0.07	0.39 ± 0.03	0.34 ± 0.05	0.32 ± 0.02	CNS penetration classification based on hMDR1 ER alone (human MDR1 [1]): false negatives
N=C(N)N/N=C/c1c(Cl)cccc1Cl [Guanabenz]	false positives	0.82 ± 0.1	3.35 ± 1.17	0.84 ± 0.1	0.85 ± 0.13	1.08 ± 0.09	0.93 ± 0.15	–
